From patent EP1094724B1, “USE OF A PHENOL OXIDISING ENZYME IN THE TREATMENT OF TOBACCO” (priority 1998, dated 2000)

Test system: Myceliopthora thermophila laccase (MtL)
Assay: Laccase MtL treatment of tobacco extract, HPLC analysis of phenolic compounds (peak area)
Format: biochemical
Conditions: for Remaining content (% remaining) (peak area relative to the content in the extract): before drying
Protocol: The content of phenolic compounds is analysed by HPLC according to the procedure described below: • Liquid chromatographic system: E.g. Shimadzu SCL-6B System Controller, and two LC-6A Liquid Chromatograph (pumps) or Waters model 600 E • Injector: Shimadzu SIL 6B Autoinjector or Waters 715 Ultra Wisp. UV detector: Shimadzu SPD-6A Photodiode Array UV-VIS detector or Waters Model 481 • Software: CLASS LC10 / CLASS-MXA or Maxima 820 • Column: Supelcosil™ LC-18 25 cm x 4.6 mm (Supelco, #5-8298) or µ Bondapack C198 stainless steel column, 30 cm x 4 mm i.d., 10 µm particle size. • Guard column: none or Guard-Pak from Waters packed with the same material. • Temperature: Ambient • Mobile phase flow: 1.3 ml/min • Injection volume: 20µl • Wavelength: 350 nm • Eluent: Binary gradient (linear) mixture of A: KH2PO4 (28.4 g in 2000 ml de-mineralised water) and B: methanol (please see table 1 and figure 1). The eluent is filtered through a 0.45 µm filter and degassed before use.
Prior to HPLC analysis, the samples were filtered through a 0.45 µm filter or smaller, e.g. a sterile Sartorius Minisart 0.45 µm filter (#16555) or a Millipore Millex-GS 0.22 µm (#SBGS 0 25 SB) to remove the haze/precipitate normally formed during enzyme treatment. Normally, no dilution of the extract/sample was made before HPLC analysis.
For qualitative and semi-quantitative measurements, each of the standards was dissolved in 96% ethanol, and then mixed in a ratio and at a concentration which was within the range in the tobacco extract. For semi-quantification of the phenolic compounds in the tobacco extract, and as a measure of development in concentration of the various compounds contained in the extract, decrease in peak area relative to the peak area before addition of enzyme was used. As a measure of overall efficiency of the process, degree of reduction in total peak area of all peaks (not only the major ones) in the HPLC chromatogram with retention time Rt>3 min was used (named: "All peaks").
Unless otherwise indicated, the tobacco was extracted at a laboratory scale with water according to the following procedure: 1000 ml demineralised water is heated to 45°C. 30 g tobacco (approx. 25 g d.m.) is added and the mixture stirred by a magnetic bar and occasionally with a stick. After 15 minutes the tobacco residue is separated from the tobacco extract by vacuum filtration (Whatman glass micro fibre GF/F 11 cm). The filtered extract is then vacuum filtered at least once more or until it is completely clear. Yield was around 900 ml tobacco extract. […] No buffer was thus included in any of the trials. D.m. content of the extract was approximately 2.1%.
Tobacco extract (typically 50-100 ml) was poured into a glass beaker and a magnetic bar was added. No pH adjustments were made, and no buffer was added. The tobacco extract was heated to and controlled at 55°C during the entire enzyme treatment by means of a heating plate and a thermostat. Intensive submerse aeration was applied by blowing atmospheric air into the extract by means of a metal sinter (metal suction filter normally used for HPLC). The enzyme in question (TvL or PpL) was added to the desired concentration. Shortly after addition of laccase, the colour of the tobacco extract turned dark brown to black, and with time the liquor became turbid and a precipitate formed. The liquor was sampled with intervals for HPLC analysis.
It is obvious, that MtL can also be used to remove the phenolic compounds. It is evident, that using a dosage of MtL of approximately 0.63 µg/ml, longer processing time is needed compared to using a dosage of 6.3 µg/ml to obtain the same degree of reduction of the phenolic compounds, and that almost complete removal can be obtained with a dosage of approximately 0.63 µg/ml.
Enzyme treatment: MtL enzyme was added at various concentrations in the range 2.5 µg/ml - 6.3 µg/ml. A fixed processing time of 20 minutes was used. […]

COc1cc2ccc(=O)oc2cc1O [S, 7-Hydroxy-6-methoxy-2H-1-benzopyran-2-one]
Residual amount (% remaining) (peak area) (0 % pO2, 3.8 µg/ml MtL for 20 minutes at pH 5.4 and 55°C): 100%
Residual amount (% remaining) (peak area) (2.5 µg MtL /ml, 20 minutes at pH 5.4 and 55°C, intensive submerse aeration): 97%
Residual amount (% remaining) (peak area) (3.8 µg MtL /ml, 20 minutes at pH 5.4 and 55°C, intensive submerse aeration): 69%
Residual amount (% remaining) (peak area) (6.3 µg MtL /ml, 20 minutes at pH 5.4 and 55°C, intensive submerse aeration): 52%
Residual amount (% remaining) (peak area) (30 % pO2, 3.8 µg/ml MtL for 20 minutes at pH 5.4 and 55°C): 75%
Residual amount (% remaining) (peak area) (50 % pO2, 3.8 µg/ml MtL for 20 minutes at pH 5.4 and 55°C): 59%
Residual amount (% remaining) (peak area) (90 % pO2, 3.8 µg/ml MtL for 20 minutes at pH 5.4 and 55°C): 45%
% Remaining (peak area) after various treatment times (10 min, approx. 6.3 µg/ml MtL at pH 5.4 and 55°C, intensive submerse aeration): 78%
% Remaining (peak area) after various treatment times (20 min, approx. 6.3 µg/ml MtL at pH 5.4 and 55°C, intensive submerse aeration): 52%
% Remaining (peak area) after various treatment times (67 min, approx. 0.63 µg/ml MtL at pH 5.4 and 55°C, intensive submerse aeration): 90%
% Remaining (peak area) after various treatment times (150 min, approx. 0.63 µg/ml MtL at pH 5.4 and 55°C, intensive submerse aeration): 76%
Remaining content (% remaining) (peak area relative to the content in the extract) (Sample 4 enzyme treated extract after separation from precipitate, approximately 7.5 µg/ml MtL, 30 minutes, 53-56°C, pH 5.5): 47%
Remaining content (% remaining) (peak area relative to the content in the extract) (Sample 6 enzyme and bentonite treated extract separated from precipitate and bentonite, approximately 7.5 µg/ml MtL 30 minutes, then bentonite 15 minutes at 50-55°C): 44%
